Experimental findings from the supplement of paper PMC11208160 are described below.
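Note: IS621 recombinase and bridge RNA in Escherichia coli cells.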

The data set is described as follows: recombinant barcode read abundance after kanamycin selection (control-corrected) (log10(CPM+1)); higher = more efficient recombination; sequences stand for … in AGTGCAGAGAAAATCGGCCAGTTTTCTCTGCCTGCAGTCCGCATGCCGT…AGATTTATGCAGCGGACTGCCTTTCTCCCAAAGTGATAAACCGGACAGTATCATGGACCGGTTTTCCCGGTAATCCGTATTTGCAAGGTTGGTTTCACT; site = the 11-nt target. Put shortly:
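Targets were screened in pooled form in E. coli against IS621 bridge RNA target-binding loops. Recombination efficiency is based on barcode counts at recombinant junctions in counts per million, averaged and corrected for the control. Numbers are shown as log10(CPM+1), with duplicate plates on chloramphenicol/ampicillin LB agar (control) or chloramphenicol/ampicillin/kanamycin with 0.1 mM IPTG.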
Take “CTAAGGGCTTGGGTTCTAACCTGTTGCGG (site CTAAGGGCTCC)”: the “recombinant barcode read abundance (log10)” value turned out to be 1.94.

Turning to “CTAAGGGCTTGGGTTCTAACCTGTTGCGG (site CTTAGGGCTCC)”, the “recombinant barcode read abundance (log10)” value turned out to be 0.303.

Turning to “CTAAGTTCTTGGGTTCTAACCTGTTGCGT (site CTAAGTTCTAC)”, the “recombinant barcode read abundance (log10)” value was found to be 1.77.

Turning to “CTAAGTTCTTGGGTTCTAACCTGTTGCGT (site CTACGTACTAC)”, the “recombinant barcode read abundance (log10)” value was found to be 0.0986.

Take “CTAATAGCTTGGGTTCTAACCTGTTGCCT (site CTAATAGCTAG)”: the “recombinant barcode read abundance (log10)” value turned out to be 0.901.

Take “CTAATAGCTTGGGTTCTAACCTGTTGCCT (site CTAATGGCTAG)”: the “recombinant barcode read abundance (log10)” value is 0.0554.

Turning to “CTAATAGCTTGGGTTCTAACCTGTTGCTA (site CTAATAGCTTA)”, the “recombinant barcode read abundance (log10)” value came to 0.162.

For “CTAATAGCTTGGGTTCTAACCTGTTGCTA (site CTAATATCTTA)”, the “recombinant barcode read abundance (log10)” value was determined as 0.438.

Turning to “CTAATATCTTGGGTTCTAACCTGTTGCTA (site CTAATAGCTTA)”, the “recombinant barcode read abundance (log10)” value turned out to be 0.0341.

As for “CTAATATCTTGGGTTCTAACCTGTTGCTA (site CTAATATCTTA)”, the “recombinant barcode read abundance (log10)” value was 0.512.

With “CTAATTGCTTGGGTTCTAACCTGTTGCCT (site CCAATTGCTAG)”, the “recombinant barcode read abundance (log10)” value came to 0.201.

As for “CTAATTGCTTGGGTTCTAACCTGTTGCCT (site CTAATTGCTAG)”, the “recombinant barcode read abundance (log10)” value was determined as 0.336.

Consider “CTACAACCTTGGGTTCTAACCTGTTGCTT (site CTACAACCTAA)”, for which the “recombinant barcode read abundance (log10)” value came out at 1.28.

Consider “CTACAACCTTGGGTTCTAACCTGTTGCTT (site CTACACCCTAA)”, for which the “recombinant barcode read abundance (log10)” value was found to be 0.0399.

As for “CTACAACCTTGGGTTCTAACCTGTTGCTT (site CTACAGCCTAA)”, the “recombinant barcode read abundance (log10)” value was 0.109.

In the case of “CTACAACCTTGGGTTCTAACCTGTTGCTT (site CTACATCCTAA)”, the “recombinant barcode read abundance (log10)” value amounted to 0.

As for “CTACCCTCTTGGGTTCTAACCTGTTGCCT (site CTACCCTCTAG)”, the “recombinant barcode read abundance (log10)” value was 2.4.

On to “CTACCCTCTTGGGTTCTAACCTGTTGCCT (site TCTAAGACTGC)”, for which the “recombinant barcode read abundance (log10)” value came to 0.122.

With “CTACGCACTTGGGTTCTAACCTGTTGCTG (site CTACGAACTCA)”, the “recombinant barcode read abundance (log10)” value came to 0.

Consider “CTACGCACTTGGGTTCTAACCTGTTGCTG (site CTACGCACTCA)”, for which the “recombinant barcode read abundance (log10)” value came out at 1.68.

As for “CTACGCACTTGGGTTCTAACCTGTTGCTG (site CTACGGACTCA)”, the “recombinant barcode read abundance (log10)” value came out at 0.112.

As to “CTACGCACTTGGGTTCTAACCTGTTGCTG (site CTACGTACTCA)”, the “recombinant barcode read abundance (log10)” value is 0.156.

Take “CTACGCTCTTGGGTTCTAACCTGTTGCAC (site CTACGATCTGT)”: the “recombinant barcode read abundance (log10)” value came to 0.145.

For the sequence “CTACGCTCTTGGGTTCTAACCTGTTGCAC (site CTACGCTCTGT)”, the “recombinant barcode read abundance (log10)” value was determined as 1.78.

Take “CTACGCTCTTGGGTTCTAACCTGTTGCAC (site CTACGGTCTGT)”: the “recombinant barcode read abundance (log10)” value was 0.0577.

Turning to “CTACGCTCTTGGGTTCTAACCTGTTGCAC (site CTACGTTCTGT)”, the “recombinant barcode read abundance (log10)” value was found to be 0.0706.

With “CTACGTACTTGGGTTCTAACCTGTTGCGT (site CTAAGTTCTAC)”, the “recombinant barcode read abundance (log10)” value came to 0.0986.

Take “CTACGTACTTGGGTTCTAACCTGTTGCGT (site CTACGTACTAC)”: the “recombinant barcode read abundance (log10)” value is 0.051.

For “CTACGTCCTTGGGTTCTAACCTGTTGCTA (site CTACGTCCTAA)”, the “recombinant barcode read abundance (log10)” value came to 0.0386.

Take “CTACGTCCTTGGGTTCTAACCTGTTGCTA (site CTACGTCCTCA)”: the “recombinant barcode read abundance (log10)” value was 0.0856.

As to “CTACGTCCTTGGGTTCTAACCTGTTGCTA (site CTACGTCCTGA)”, the “recombinant barcode read abundance (log10)” value is 0.425.

With “CTACGTCCTTGGGTTCTAACCTGTTGCTA (site CTACGTCCTTA)”, the “recombinant barcode read abundance (log10)” value worked out at 0.795.

As to “CTACTAACTTGGGTTCTAACCTGTTGCGT (site CTACTAACTAA)”, the “recombinant barcode read abundance (log10)” value was determined as 0.13.

Consider “CTACTAACTTGGGTTCTAACCTGTTGCGT (site CTACTAACTAC)”, for which the “recombinant barcode read abundance (log10)” value worked out at 1.07.

With “CTACTAACTTGGGTTCTAACCTGTTGCGT (site CTACTAACTAG)”, the “recombinant barcode read abundance (log10)” value is 0.339.

For the sequence “CTACTAACTTGGGTTCTAACCTGTTGCGT (site CTACTAACTAT)”, the “recombinant barcode read abundance (log10)” value was 0.129.

For the sequence “CTACTATCTTGGGTTCTAACCTGTTGCGC (site CTACTATCTGC)”, the “recombinant barcode read abundance (log10)” value worked out at 0.937.

In the case of “CTACTATCTTGGGTTCTAACCTGTTGCGC (site TATAACACTCG)”, the “recombinant barcode read abundance (log10)” value was 0.188.

For “CTACTATCTTGGGTTCTAACCTGTTGCGT (site CTACTATCTAC)”, the “recombinant barcode read abundance (log10)” value was determined as 1.58.

On to “CTACTATCTTGGGTTCTAACCTGTTGCGT (site TCGAGTGCTCT)”, for which the “recombinant barcode read abundance (log10)” value was determined as 0.143.

As to “CTACTTCCTTGGGTTCTAACCTGTTGCGT (site CTACCTCCTAC)”, the “recombinant barcode read abundance (log10)” value came out at 0.215.

For the sequence “CTACTTCCTTGGGTTCTAACCTGTTGCGT (site CTACTTCCTAC)”, the “recombinant barcode read abundance (log10)” value is 1.69.

“CTACTTGCTTGGGTTCTAACCTGTTGCAA (site CTAATTGCTTT)”: the “recombinant barcode read abundance (log10)” value worked out at 0.364.

For the sequence “CTACTTGCTTGGGTTCTAACCTGTTGCAA (site CTACTTGCTTT)”, the “recombinant barcode read abundance (log10)” value amounted to 0.326.

With “CTACTTGCTTGGGTTCTAACCTGTTGCAA (site CTAGTTGCTTT)”, the “recombinant barcode read abundance (log10)” value was 0.239.

On to “CTACTTGCTTGGGTTCTAACCTGTTGCAA (site CTATTTGCTTT)”, for which the “recombinant barcode read abundance (log10)” value is 0.592.

Take “CTAGACACTTGGGTTCTAACCTGTTGCCT (site CTAGACACTAG)”: the “recombinant barcode read abundance (log10)” value was 0.612.

For “CTAGACACTTGGGTTCTAACCTGTTGCCT (site CTCGACACTAG)”, the “recombinant barcode read abundance (log10)” value was 0.0911.

On to “CTAGACACTTGGGTTCTAACCTGTTGCCT (site CTGGACACTAG)”, for which the “recombinant barcode read abundance (log10)” value turned out to be 0.0451.

On to “CTAGACACTTGGGTTCTAACCTGTTGCCT (site CTTGACACTAG)”, for which the “recombinant barcode read abundance (log10)” value came to 0.512.

As for “CTAGACCCTTGGGTTCTAACCTGTTGCGG (site ACGCGTTCTAT)”, the “recombinant barcode read abundance (log10)” value came to 0.25.

In the case of “CTAGACCCTTGGGTTCTAACCTGTTGCGG (site CTAGACCCTCC)”, the “recombinant barcode read abundance (log10)” value was 2.56.

In the case of “CTAGACGCTTGGGTTCTAACCTGTTGCCT (site CAAGACGCTAG)”, the “recombinant barcode read abundance (log10)” value came to 1.41.

As to “CTAGACGCTTGGGTTCTAACCTGTTGCCT (site CTAGACGCTAG)”, the “recombinant barcode read abundance (log10)” value was found to be 0.677.

As to “CTAGACTCTTGGGTTCTAACCTGTTGCAT (site CTAGACTCTAT)”, the “recombinant barcode read abundance (log10)” value is 2.88.

As to “CTAGACTCTTGGGTTCTAACCTGTTGCAT (site CTAGACTCTCT)”, the “recombinant barcode read abundance (log10)” value turned out to be 1.75.

For “CTAGACTCTTGGGTTCTAACCTGTTGCAT (site CTAGACTCTGT)”, the “recombinant barcode read abundance (log10)” value is 0.161.

Consider “CTAGACTCTTGGGTTCTAACCTGTTGCAT (site CTAGACTCTTT)”, for which the “recombinant barcode read abundance (log10)” value was 0.365.

For “CTAGCGACTTGGGTTCTAACCTGTTGCGG (site CTAACGACTCC)”, the “recombinant barcode read abundance (log10)” value turned out to be 0.637.
